ChEMBL document CHEMBL2157964, “Effect of alkyl chain length on sphingosine kinase 2 selectivity” (Bioorg Med Chem Lett, 2012)

Columns and labels:
Sphingosine kinase 1 [1] = target: T1, Sphingosine kinase 1 (Homo sapiens, UniProt Q9NYA1); assay: Inhibition of recombinant SphK1 expressed in baculovirus infected Sf9 cells using D-erythro-sphingosine as substrate and [32gammaP]ATP assessed as residual activity at 10 uM by scintillation counting
[2] = target: T2, Sphingosine kinase 2 (Homo sapiens) (UniProt Q9NRA0); assay: Inhibition of recombinant SphK2 expressed in baculovirus infected Sf9 cells using D-erythro-sphingosine as substrate and [32gammaP]ATP assessed as residual activity at 10 uM by scintillation counting
T2 sequence (whole entry): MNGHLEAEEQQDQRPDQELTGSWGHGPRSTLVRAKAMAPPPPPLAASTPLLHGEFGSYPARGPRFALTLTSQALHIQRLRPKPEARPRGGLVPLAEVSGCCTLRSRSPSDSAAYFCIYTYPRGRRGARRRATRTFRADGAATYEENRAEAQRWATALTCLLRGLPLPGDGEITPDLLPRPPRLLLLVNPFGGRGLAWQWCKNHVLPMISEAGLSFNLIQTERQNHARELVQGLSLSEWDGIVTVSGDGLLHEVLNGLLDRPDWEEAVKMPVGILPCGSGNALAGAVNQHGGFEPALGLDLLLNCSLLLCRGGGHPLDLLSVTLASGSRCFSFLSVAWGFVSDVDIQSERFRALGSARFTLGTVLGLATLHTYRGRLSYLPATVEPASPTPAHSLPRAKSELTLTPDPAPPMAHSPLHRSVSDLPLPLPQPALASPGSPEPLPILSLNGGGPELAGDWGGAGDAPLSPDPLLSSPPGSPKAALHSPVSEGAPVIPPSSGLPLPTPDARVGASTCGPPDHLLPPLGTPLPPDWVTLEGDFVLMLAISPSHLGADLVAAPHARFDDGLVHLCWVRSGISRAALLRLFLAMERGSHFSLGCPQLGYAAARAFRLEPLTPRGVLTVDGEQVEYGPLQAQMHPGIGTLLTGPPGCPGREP

Sphingosine kinase 2 [3] = target: T3, Sphingosine kinase 2 (Homo sapiens, UniProt Q9NRA0); assay: Inhibition of recombinant SphK2 expressed in baculovirus infected Sf9 cells using D-erythro-sphingosine as substrate and [32gammaP]ATP by scintillation counting
T3 sequence (Q9NRA0 whole entry): T2 sequence (whole entry)

Sphingosine kinase 1 [4] = target: T1, Sphingosine kinase 1; assay: Inhibition of recombinant SphK1 expressed in baculovirus infected Sf9 cells using D-erythro-sphingosine as substrate and [32gammaP]ATP by scintillation counting
Sphingosine kinase 2 [5] = target: T3, Sphingosine kinase 2; assay: Inhibition of human recombinant SphK2 using NBD-sphingosine as substrate after 2 hrs by HPLC analysis
Sphingosine kinase 2 [6] = target: T3, Sphingosine kinase 2; assay: Inhibition of SphK2 using sphingosine as substrate and [32gammaP]ATP after 15 to 20 mins by Cerenkov counting analysis
[7] = Selectivity ratio of Ki for recombinant SphK1 to Ki for recombinant SphK2

T1 sequence (Q9NYA1 whole entry): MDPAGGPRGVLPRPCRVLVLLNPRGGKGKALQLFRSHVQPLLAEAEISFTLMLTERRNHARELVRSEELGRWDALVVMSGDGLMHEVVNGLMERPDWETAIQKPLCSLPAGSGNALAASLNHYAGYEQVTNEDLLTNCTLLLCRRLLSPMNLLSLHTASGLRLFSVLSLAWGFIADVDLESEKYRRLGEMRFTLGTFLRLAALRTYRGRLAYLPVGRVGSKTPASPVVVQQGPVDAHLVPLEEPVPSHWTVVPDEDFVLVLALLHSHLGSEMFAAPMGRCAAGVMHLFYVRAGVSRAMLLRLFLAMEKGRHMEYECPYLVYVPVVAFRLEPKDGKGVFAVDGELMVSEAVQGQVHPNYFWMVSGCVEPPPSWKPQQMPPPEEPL

Row | Activity (Sphingosine kinase 1 [1]) [%] | Activity [2] [%] | Ki (Sphingosine kinase 2 [3]) [µM] | Ki (Sphingosine kinase 1 [4]) [µM] | Ki (Sphingosine kinase 2 [5]) [µM] | Ki (Sphingosine kinase 2 [6]) [µM] | Ratio Ki [7] | SMILES
1 | 62 | 28 | – | – | – | – | – | CCCCCCCCCC#Cc1ccc([C@H]2CC[C@H]([N+](C)(C)CCC)CC2)cc1
2 | 73 | 50 | – | – | – | – | – | CCCCCCCCCCCCCC(=O)c1ccc([C@H]2CC[C@H]([N+](C)(C)CCC)CC2)cc1
3 | – | – | – | – | 9.8 | – | – | O=C(NCc1ccncc1)C12CC3CC(C1)CC(c1ccc(Cl)cc1)(C3)C2 [ABC-294640]
4 | 89 | 71 | – | – | – | – | – | CCCCCC(=O)c1ccc([C@H]2CC[C@H]([N+](C)(C)CCC)CC2)cc1
5 | 93 | 75 | – | – | – | – | – | CCCCCCCCCC(=O)c1ccc([C@H]2CC[C@H]([N+](C)(C)CCC)CC2)cc1
6 | 44 | 50 | 11 | 15 | – | – | – | CCCCCCCCCCCc1ccc([C@H]2CC[C@H]([N+](C)(C)CCC)CC2)cc1
7 | 87 | 100 | – | – | – | – | – | CCCCCCCC#Cc1ccc([C@H]2CC[C@H]([N+](C)(C)CCC)CC2)cc1
8 | 67 | 26 | 43 | 35 | – | – | – | CCCCCCCCCCc1ccc([C@H]2CC[C@H]([N+](C)(C)CCC)CC2)cc1
9 | 98 | 98 | 43 | 35 | – | – | – | CCCCCCc1ccc([C@H]2CC[C@H]([N+](C)(C)CCC)CC2)cc1
10 | 100 | 70 | – | – | – | – | – | CCCCCCCOc1ccc([C@H]2CC[C@H]([N+](C)(C)CCC)CC2)cc1
11 | 77 | 58 | – | – | – | – | – | CCCCCCCCCCCCCCCC(=O)c1ccc([C@H]2CC[C@H]([N+](C)(C)CCC)CC2)cc1
12 | 79 | 40 | – | – | – | – | – | CCCCCCCCCCC(=O)c1ccc([C@H]2CC[C@H]([N+](C)(C)CCC)CC2)cc1
13 | 100 | 64 | 21 | 22 | – | – | – | CCCCCCCCc1ccc([C@H]2CC[C@H]([N+](C)(C)CCC)CC2)cc1
14 | 94 | 70 | 29 | 27 | – | – | – | CCCCCCCCCCCCCCCCc1ccc([C@H]2CC[C@H]([N+](C)(C)CCC)CC2)cc1
15 | – | – | – | – | – | 16.5 | – | CCCCCCCCc1ccc(CC[C@@](N)(CO)COC)cc1
16 | 76 | 38 | 7 | 36 | – | – | 3 | CCCCCCCCCCCCCCc1ccc([C@H]2CC[C@H]([N+](C)(C)CCC)CC2)cc1
17 | 88 | 41 | – | – | – | – | – | CCCCCCCCCCCC(=O)c1ccc([C@H]2CC[C@H]([N+](C)(C)CCC)CC2)cc1
18 | 61 | 78 | – | – | – | – | – | CCCCCCCCC#Cc1ccc([C@H]2CC[C@H]([N+](C)(C)CCC)CC2)cc1

Row | SMILES | Activity (Sphingosine kinase 1 [1]) [%] | Activity [2] [%] | Ki (Sphingosine kinase 2 [3]) [µM] | Ki (Sphingosine kinase 1 [4]) [µM] | Ki (Sphingosine kinase 2 [5]) [µM] | Ki (Sphingosine kinase 2 [6]) [µM] | Ratio Ki [7]
19 | CCCCCCCCCCCCc1ccc([C@H]2CC[C@H]([N+](C)(C)CCC)CC2)cc1 | 63 | 26 | 8 | 13 | – | – | –
